# From the NIST ThermoML archive (doi:10.1016/j.tca.2004.12.008)
# Numbers after ± are expanded uncertainties.
# Test: mn = molality of the nth substance listed, in mol/kg
# Conditions: 101.3 kPa, Liquid, Vibrating tube method
smiles,measurement,setting,value
NCC(=O)NCC(=O)O [glycylglycine] + O,mass density,"298.15 K, m1 = 0.0949",1002.54 ± 0.07 kg/m3
same,mass density,"298.15 K, m1 = 0.2052",1008.5 ± 0.07 kg/m3
same,mass density,"298.15 K, m1 = 0.2997",1013.49 ± 0.08 kg/m3
same,mass density,"298.15 K, m1 = 0.4062",1018.99 ± 0.09 kg/m3
same,mass density,"298.15 K, m1 = 0.5069",1024.06 ± 0.1 kg/m3
same,mass density,"308.15 K, m1 = 0.0949",999.21 ± 0.07 kg/m3
same,mass density,"308.15 K, m1 = 0.2052",1005.1 ± 0.07 kg/m3
same,mass density,"308.15 K, m1 = 0.2997",1010.03 ± 0.08 kg/m3
same,mass density,"308.15 K, m1 = 0.4062",1015.47 ± 0.09 kg/m3
same,mass density,"308.15 K, m1 = 0.5069",1020.5 ± 0.1 kg/m3
